# According to ChEMBL document CHEMBL6096697, “Structure-Guided Discovery of Novel N4-(Substituted Thiazol-2-yl)-N2-(4-Substituted phenyl)pyrimidine-2,4-Diamines as Potent CDK2 and CDK9 Dual Inhibitors with High Oral Bioavailability” (J Med Chem, 2025):
# Calls of active or inactive are those of the source. No cut-off for these calls is given here.
# Columns and labels:
# [1] = test system: C6; assay: Antitumor activity against rat C6 cells allografted in Sprague-Dawley rat at 70 mg/kg/day, po treated for 2 weeks relative to control; type: functional; conditions: C6, 336 h, read-out: TGI
# [2] = Oral bioavailability in Sprague-Dawley rat at 10 mg/kg measured for 36 hrs by MRM analysis; type: ADME, organism-based; conditions: in vivo
# [3] = test system: HCT-116; assay: Induction of cell cycle arrest at G2/M phase in human HCT-116 cells assessed as decrease in cyclin B1 level at 0.4 uM by Western blot analysis; type: functional, cell-based; conditions: time <= 48.0 hrs
# [4] = test system: HCT-116; assay: Induction of apoptosis in human HCT-116 cells assessed as decrease in Bcl-2 level upto 0.8 uM incubated for 24 hrs by Western blot analysis; type: functional, cell-based
# [5] = MRT (0 to t) in Sprague-Dawley rat at 2 mg/kg, iv measured for 36 hrs by MRM analysis; type: ADME, organism-based; conditions: in vivo
# [6] = test system: HeLa; assay: Induction of cell cycle arrest in human HeLa cells assessed as accumulation at G1/G0 phase at 0.9 uM incubated for 24 hrs by PI staining based flow cytometry (reference value: 57.63 +/- 1.7 %); type: functional
# [7] = AUC (0 to infinity) in Sprague-Dawley rat at 2 mg/kg, iv measured for 36 hrs by MRM analysis; type: ADME, organism-based; conditions: in vivo
# [8] = Toxicity in Balb/c-nu nude mouse xenografted with human HCT-116 cells assessed as toxicity in kidney at 35 to 70 mg/kg/day, po treated for 30 days by H and E staining based analysis; type: organism-based; conditions: in vivo, 720 h, dose 35-70 mg/kg/day, time 30 day
# [9] = Toxicity in Sprague-Dawley rat allografted with rat C6 cells assessed as obvious signs of toxicity at 70 mg/kg/day, po treated for 2 weeks; type: organism-based; conditions: in vivo, 336 h
# [10] = target: Cyclin-dependent kinase 2/cyclin A (Homo sapiens) (UniProt P24941+P20248+P78396); assay: Inhibition of CDK2/cyclin A (unknown origin) using […] at 1 uM incubated for 40 mins in presence of ATP by Kinase-Glo assay relative to control; type: protein-complex assay
# [11] = Toxicity in Balb/c-nu nude mouse xenografted with human HCT-116 cells assessed as toxic reactions at 35 to 70 mg/kg/day, po treated for 30 days; type: organism-based; conditions: in vivo, 720 h, dose 35-70 mg/kg/day, time 30 day
# [12] = Tmax in Sprague-Dawley rat at 2 mg/kg, iv measured for 36 hrs by MRM analysis; type: ADME, organism-based; conditions: in vivo
# [13] = test system: HeLa; assay: Induction of cell cycle arrest at G2/M phase in human HeLa cells assessed as decrease in cyclin B1 level incubated for 48 hrs by Western blot analysis; type: functional, cell-based; conditions: dose <= 3.6 µM
# [14] = test system: HCT-116; assay: Induction of cell cycle arrest in human HCT-116 cells assessed as accumulation at S phase at 0.2 uM incubated for 24 hrs by PI staining based flow cytometry (reference value: 20.82 +/- 1.24 %); type: functional
# [15] = target: Cyclin-dependent kinase 2 (Homo sapiens) (UniProt P24941); assay: Inhibition of CDK2 in human HCT-116 cells assessed as reduction in Rb phosphorylation at Ser780 incubated for 24 hr s by Western blot analysis; type: cell-based; conditions: dose <= 0.8 µM
# [16] = test system: HeLa; assay: Induction of apoptosis in human HeLa cells assessed as increase in cleaved PARP level upto 3.6 uM incubated for 24 hrs by Western blot analysis; type: functional, cell-based
# [17] = test system: HeLa; assay: Induction of apoptosis in human HeLa cells assessed as viable cells at 3.6 uM incubated for 24 hrs by PI staining based flow cytometry (reference value: 68.9 %); type: functional; conditions: read-out: Activity
# [18] = test system: HeLa; assay: Induction of apoptosis in human HeLa cells assessed as late apoptotic cells at 0.9 uM incubated for 24 hrs by PI staining based flow cytometry (reference value: 3.85 %); type: functional
# [19] = test system: HeLa; assay: Induction of apoptosis in human HeLa cells assessed as early apoptotic cells at 3.6 uM incubated for 24 hrs by PI staining based flow cytometry (reference value: 0.8 %); type: functional
# [20] = test system: U-87 MG; assay: Antiproliferative activity against human U-87 MG cells assessed as cell growth inhibition incubated for 48 hrs by MTT assay; type: functional, cell-based, U-87MG ATCC
# [21] = Inhibition of CDK1/cyclin B (unknown origin) using […] incubated for 40 mins in presence of ATP by Kinase-Glo assay; design: species or system Homo sapiens
# [22] = Apparent volume of distribution in Sprague-Dawley rat at 10 mg/kg, po measured for 36 hrs by MRM analysis; type: ADME, organism-based; conditions: in vivo
# [23] = AUC (0 to t) in Sprague-Dawley rat at 2 mg/kg, iv measured for 36 hrs by MRM analysis; type: ADME, organism-based; conditions: in vivo
# [24] = test system: HeLa; assay: Induction of apoptosis in human HeLa cells assessed as total apoptotic cells at 3.6 uM incubated for 24 hrs by PI staining based flow cytometry (reference value: 4.65 %); type: functional
# [25] = target: Cyclin-dependent kinase 2 (Homo sapiens) (UniProt P24941); assay: Inhibition of CDK2 in human HCT-116 cells assessed as reduction in Rb phosphorylation at Ser807/811 incubated for 24 hr s by Western blot analysis; type: cell-based; conditions: dose <= 0.8 µM
# [26] = test system: HCT-116; assay: Induction of apoptosis in human HCT-116 cells assessed as viable cells at 0.4 uM incubated for 24 hrs by PI staining based flow cytometry (reference value: 79.4 %); type: functional; conditions: read-out: Activity
# [27] = test system: HeLa; assay: Induction of apoptosis in human HeLa cells assessed as viable cells at 0.9 uM incubated for 24 hrs by PI staining based flow cytometry (reference value: 68.9 %); type: functional; conditions: read-out: Activity
# [28] = test system: HeLa; assay: Induction of cell cycle arrest in human HeLa cells assessed as accumulation at sub-G1 phase at 0.9 uM incubated for 24 hrs by PI staining based flow cytometry (reference value: 1.89 +/- 0.56 %); type: functional
# [29] = Cmax in Sprague-Dawley rat at 10 mg/kg, po measured for 36 hrs by MRM analysis; type: ADME, organism-based; conditions: in vivo
# [30] = test system: HCT-116; assay: Induction of apoptosis in human HCT-116 cells assessed as early apoptotic cells at 0.8 uM incubated for 24 hrs by PI staining based flow cytometry (reference value: 0.19 %); type: functional
# [31] = test system: A549; assay: Antiproliferative activity against human A549 cells assessed as cell growth inhibition incubated for 48 hrs by MTT assay; type: functional, cell-based; conditions: A549, 48 h
# [32] = test system: HeLa; assay: Induction of cell cycle arrest in human HeLa cells assessed as accumulation at S phase at 1.8 uM incubated for 24 hrs by PI staining based flow cytometry (reference value: 17.84 +/- 1.89 %); type: functional
# [33] = test system: HCT-116; assay: Effect on Bax level in human HCT-116 cells upto 0.8 uM incubated for 24 hrs by Western blot analysis; type: functional, cell-based
# [34] = test system: HeLa; assay: Induction of apoptosis in human HeLa cells assessed as viable cells at 1.8 uM incubated for 24 hrs by PI staining based flow cytometry (reference value: 68.9 %); type: functional; conditions: read-out: Activity
# [35] = test system: HeLa; assay: Induction of cell cycle arrest in human HeLa cells assessed as accumulation at G2/M phase at 1.8 uM incubated for 24 hrs by PI staining based flow cytometry (reference value: 24.6 +/- 1.11 %); type: functional
# [36] = test system: HCT-116; assay: Induction of apoptosis in human HCT-116 cells assessed as viable cells at 0.2 uM incubated for 24 hrs by PI staining based flow cytometry (reference value: 79.4 %); type: functional; conditions: read-out: Activity
# [37] = target: Cyclin-dependent kinase 9 (Homo sapiens) (UniProt P50750); assay: Inhibition of CDK9 in human HCT-116 cells assessed as reduction in Rpb1 phosphorylation at Ser2/5 incubated for 24 hr s by Western blot analysis; type: cell-based; conditions: dose <= 0.8 µM
# Sequence of Cyclin-dependent kinase 9 (Homo sapiens) (P50750 whole entry): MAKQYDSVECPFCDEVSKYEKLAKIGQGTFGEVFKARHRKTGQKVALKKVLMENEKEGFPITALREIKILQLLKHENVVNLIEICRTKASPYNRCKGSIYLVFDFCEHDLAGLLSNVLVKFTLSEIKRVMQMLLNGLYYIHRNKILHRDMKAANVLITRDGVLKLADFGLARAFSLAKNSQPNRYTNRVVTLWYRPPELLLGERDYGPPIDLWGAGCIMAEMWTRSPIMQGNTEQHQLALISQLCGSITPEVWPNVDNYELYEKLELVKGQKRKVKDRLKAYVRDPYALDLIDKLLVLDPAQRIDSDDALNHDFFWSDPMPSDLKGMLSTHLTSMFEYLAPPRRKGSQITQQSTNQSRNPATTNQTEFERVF
structure (smiles),measurement,setting,value
Cc1cnc(Nc2ccc(S(N)(=O)=O)cc2)nc1Nc1nccs1,inhibition in vivo at 70 mg/kg/day,[1],86%
same,bioavailability,[2],86.7%
same,Activity,[3],Time-dependent-effect
same,Activity,[4],Active
same,MRT last at 36 h,[5],2.7 h
same,Activity,[6],52.88%
same,AUC(0-inf),[7],33.7 ng·h/mL
same,Activity,[8],Non-toxic
same,Activity,[9],Non-toxic
same,inhibition,[10],99.5%
same,Activity,[11],Non-toxic
same,Tmax,[12],0.2 h
same,Activity,[13],Dose-dependent-effect
same,Activity,[14],22.83%
same,inhibition,[15],Dose-dependent-effect
same,Activity,[16],Active
same,viability at 3.6 µM,[17],11.7%
same,Activity,[18],5%
same,Activity,[19],61%
same,IC50,[20],1010 nM
same,IC50,[21],53 nM
same,Vz,[22],398.7 L/kg
same,AUC(0-t) at 36 h,[23],33.5 ng·h/mL
same,Activity,[24],88.3%
same,inhibition,[25],Dose-dependent-effect
same,viability at 0.4 µM,[26],54.4%
same,viability at 0.9 µM,[27],29.1%
same,Activity,[28],1.81%
same,Cmax,[29],21.1 ng/mL
same,Activity,[30],15.5%
same,IC50,[31],> 30000 nM
same,Activity,[32],16.79%
same,Activity,[33],No effect
same,viability at 1.8 µM,[34],11.3%
same,Activity,[35],30.58%
same,viability at 0.2 µM,[36],63.1%
same,inhibition,[37],Dose-dependent-effect
